{"source": "patent US12285012B2", "about": "“Compositions comprising pyridine carboxylate herbicides with acetolactate synthase (ALS) inhibitor herbicides” (Corteva Agriscience LLC, priority 2018, dated 2025)", "assay_in_all_cases": "Greenhouse postemergence herbicidal effect", "type_in_all_cases": "in vivo", "key": {"[1]": {"system": "broadleaf signalgrass (BRAPP, Brachiaria platyphylla)", "settings": "Compound A 10 g/ha", "outline": "(§1)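 Plants at second or third true leaf stage, greenhouse-grown (~14 h photoperiod, about 23/22° C), sprayed at 187 L/ha with pyridine carboxylate herbicide (g ae/ha; with cloquintocet-mexyl safener unless noted) alone or plus ALS herbicide (g ai/ha) in 1.25% v/v oil adjuvant. Visual injury, 0 to 100% versus solvent-blank controls, after 20-22 d.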"}, "[2]": {"system": "poinsettia (EPHHL, Euphorbia heterophylla)", "outline": "as §1"}, "[3]": {"system": "grain sorghum (SORVU, Sorghum vulgare)", "settings": "Compound A 10 g/ha", "outline": "as §1"}, "[4]": {"system": "wild oat (AVEFA, Avena fatua)", "outline": "as §1"}, "[5]": {"system": "small-flower flatsedge (CYPDI, Cyperus difformis)", "settings": "Compound A 10 g/ha", "outline": "as §1"}, "[6]": {"system": "nutsedge (CYPES, Cyperus esculentus)", "outline": "as §1"}, "[7]": {"system": "Italian ryegrass (LOLMU, Lolium multiflorum)", "settings": "Compound A 10 g/ha; safener mefenpyr-diethyl", "outline": "as §1"}, "[8]": {"system": "blackgrass (ALOMY, Alopecurus myosuroides)", "settings": "Compound A 10 g/ha; safener mefenpyr-diethyl", "outline": "as §1"}, "[9]": {"settings": "Compound A 10 g/ha, safener mefenpyr-diethyl"}}}
{"smiles": "N#CCOC(=O)c1nc(-c2ccc3cc[nH]c3c2F)c(F)c(N)c1Cl", "note": "[Compound A, cyanomethyl 4-amino-3-chloro-5-fluoro-6-(7-fluoro-1H-indol-6-yl)pyridine-2-carboxylate]", "values": [{"measurement": "% visual injury Obs", "setting": "[1]", "result": 68, "unit": "%"}, {"measurement": "% visual injury, Obs", "setting": "[2]; 10 g/ha", "result": 83, "unit": "%"}, {"measurement": "% visual injury", "setting": "[2]; Compound A 10 g/ha", "result": 97, "unit": "%"}, {"measurement": "% visual injury", "setting": "[3]", "result": 0, "unit": "%"}, {"measurement": "% visual injury, Obs", "setting": "[3]; safener mefenpyr-diethyl", "result": 10, "unit": "%"}, {"measurement": "SORVU % visual injury Obs", "setting": "[3]; safener mefenpyr-diethyl", "result": 10, "unit": "%"}, {"measurement": "% visual injury, Obs", "setting": "[4]; 10 g/ha", "result": 0, "unit": "%"}, {"measurement": "% visual injury, Obs", "setting": "[4]; [9]", "result": 0, "unit": "%"}, {"measurement": "AVEFA % visual injury Obs", "setting": "[4]; [9]", "result": 0, "unit": "%"}, {"measurement": "% visual injury Obs", "setting": "[5]", "result": 72, "unit": "%"}, {"measurement": "% visual injury, Obs", "setting": "[6]; 10 g/ha", "result": 45, "unit": "%"}, {"measurement": "% visual injury", "setting": "[6]; Compound A 10 g/ha", "result": 8, "unit": "%"}, {"measurement": "% visual injury, Obs", "setting": "[6]; [9]", "result": 28, "unit": "%"}, {"measurement": "CYPES % visual injury Obs", "setting": "[6]; [9]", "result": 28, "unit": "%"}, {"measurement": "% visual injury, Obs", "setting": "[7]", "result": 10, "unit": "%"}, {"measurement": "LOLMU % visual injury Obs", "setting": "[7]", "result": 10, "unit": "%"}, {"measurement": "% visual injury, Obs", "setting": "[8]", "result": 13, "unit": "%"}, {"measurement": "ALOMY % visual injury Obs", "setting": "[8]", "result": 13, "unit": "%"}]}
